Measured values published in patent US20240408093A1, “HETEROBIFUNCTIONAL COMPOUNDS AND THEIR USE IN TREATING DISEASE” (HALDA THERAPEUTICS OPCO, INC., priority 2022, published 2024).

What was measured:
[1] = test system: HEK293 cells (ATCC CRL-1573); test: Cellular growth inhibition assay, HEK293 cells (Example 16); format: cell-based; conditions: Homo sapiens, 72 hours, CellTiter-Glo 2.0
HeLa cells (ATCC CCL-2) = test: Cellular growth inhibition assay, HeLa cells (Example 16); format: cell-based; conditions: Homo sapiens, 72 hours, CellTiter-Glo 2.0
GSPT1 = molecular target: T1, GSPT1 (Homo sapiens, UniProt P15170+Q96SW2); test: GSPT1 HiBiT degradation assay; format: cell-based; conditions: HEK293 LgBiT GSPT1 HiBiT cells, 6 hours
T1 construct: host or cells: HEK293 LgBiT / GSPT1 HiBiT CRISPR knock-in
T1 sequence (P15170 whole entry): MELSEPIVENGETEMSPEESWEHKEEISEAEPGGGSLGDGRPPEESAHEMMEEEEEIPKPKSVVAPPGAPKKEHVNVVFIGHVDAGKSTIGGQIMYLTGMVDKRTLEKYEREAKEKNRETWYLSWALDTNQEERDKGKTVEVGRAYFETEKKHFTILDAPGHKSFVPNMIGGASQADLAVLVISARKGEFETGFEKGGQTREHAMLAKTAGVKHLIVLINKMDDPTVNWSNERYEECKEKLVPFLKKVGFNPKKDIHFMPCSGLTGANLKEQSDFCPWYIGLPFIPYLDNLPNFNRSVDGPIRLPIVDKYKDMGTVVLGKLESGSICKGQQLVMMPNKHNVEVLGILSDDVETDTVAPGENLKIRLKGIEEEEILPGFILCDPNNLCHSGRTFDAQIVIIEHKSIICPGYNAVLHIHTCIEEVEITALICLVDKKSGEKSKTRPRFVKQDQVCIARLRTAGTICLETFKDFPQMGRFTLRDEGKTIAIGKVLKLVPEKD
T1 sequence (Q96SW2 whole entry): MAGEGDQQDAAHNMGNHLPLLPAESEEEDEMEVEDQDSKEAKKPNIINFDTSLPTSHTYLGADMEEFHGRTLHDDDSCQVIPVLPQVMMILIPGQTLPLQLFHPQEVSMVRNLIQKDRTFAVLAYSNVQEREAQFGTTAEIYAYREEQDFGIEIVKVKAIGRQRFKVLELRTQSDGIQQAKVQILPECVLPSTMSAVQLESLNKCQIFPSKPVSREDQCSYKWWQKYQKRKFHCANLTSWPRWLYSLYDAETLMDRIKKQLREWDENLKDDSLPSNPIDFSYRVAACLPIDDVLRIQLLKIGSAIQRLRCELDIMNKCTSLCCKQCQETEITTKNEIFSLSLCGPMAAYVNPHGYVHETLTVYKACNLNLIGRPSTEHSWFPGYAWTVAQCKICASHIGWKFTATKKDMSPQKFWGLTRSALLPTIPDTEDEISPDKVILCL
T1 sequence (Q16531 whole entry partner): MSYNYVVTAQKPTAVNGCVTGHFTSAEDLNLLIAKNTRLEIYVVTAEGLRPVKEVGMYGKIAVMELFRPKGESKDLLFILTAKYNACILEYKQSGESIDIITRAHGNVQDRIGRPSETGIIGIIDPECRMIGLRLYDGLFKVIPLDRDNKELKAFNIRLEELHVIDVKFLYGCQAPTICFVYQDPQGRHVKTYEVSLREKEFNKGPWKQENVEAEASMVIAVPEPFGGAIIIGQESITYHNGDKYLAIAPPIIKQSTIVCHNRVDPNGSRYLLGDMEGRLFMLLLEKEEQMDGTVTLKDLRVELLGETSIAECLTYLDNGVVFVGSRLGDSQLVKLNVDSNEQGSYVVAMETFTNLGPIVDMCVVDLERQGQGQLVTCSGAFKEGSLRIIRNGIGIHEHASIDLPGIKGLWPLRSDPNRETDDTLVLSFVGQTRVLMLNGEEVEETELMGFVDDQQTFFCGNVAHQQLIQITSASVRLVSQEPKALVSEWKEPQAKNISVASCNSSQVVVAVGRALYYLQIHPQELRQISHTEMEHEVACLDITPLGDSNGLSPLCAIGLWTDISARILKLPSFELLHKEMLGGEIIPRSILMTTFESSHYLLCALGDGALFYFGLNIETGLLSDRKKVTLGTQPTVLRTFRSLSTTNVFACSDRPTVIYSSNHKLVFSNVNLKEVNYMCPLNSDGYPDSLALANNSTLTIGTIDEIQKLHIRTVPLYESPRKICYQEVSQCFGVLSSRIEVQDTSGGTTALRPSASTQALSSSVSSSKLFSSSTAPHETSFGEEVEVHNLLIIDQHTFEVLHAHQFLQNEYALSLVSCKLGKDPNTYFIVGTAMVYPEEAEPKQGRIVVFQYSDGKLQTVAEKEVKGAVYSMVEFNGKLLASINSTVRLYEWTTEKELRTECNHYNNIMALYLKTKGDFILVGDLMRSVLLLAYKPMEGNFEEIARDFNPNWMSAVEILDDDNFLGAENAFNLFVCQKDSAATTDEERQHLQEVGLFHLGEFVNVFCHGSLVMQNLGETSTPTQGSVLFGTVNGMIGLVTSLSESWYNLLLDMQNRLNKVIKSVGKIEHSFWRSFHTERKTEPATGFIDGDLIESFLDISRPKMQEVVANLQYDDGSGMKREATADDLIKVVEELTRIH
Summary of the method: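 HEK293 CRISPR knock-in cells expressing LgBiT and GSPT1-HiBiT were seeded at 1000 cells/well and, after 18-24 h, treated with titrated compound plus endurazine (0.5× final) at 37 °C. Luminescence read after 6 h; loss of signal reflects GSPT1 degradation, giving DC50.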

KRAS G12C = KRAS G12C (Homo sapiens, UniProt P01116, G12C); test: KRAS G12C nucleotide exchange assay (SOS1-mediated, HTRF); format: biochemical; set-up: GST-tagged KRAS G12C (amino acids 2-169); conditions: 1 hr pre-incubation
Chain of KRAS G12C (P01116 2-169 isoform P01116-2 G12C): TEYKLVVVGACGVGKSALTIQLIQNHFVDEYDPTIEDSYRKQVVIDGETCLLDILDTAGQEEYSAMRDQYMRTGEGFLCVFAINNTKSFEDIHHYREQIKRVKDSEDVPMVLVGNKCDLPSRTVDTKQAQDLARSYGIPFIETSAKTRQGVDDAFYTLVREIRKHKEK
Procedure: KRAS target engagement (IC50 determination) was performed using a KRAS G12C nucleotide exchange assay. Specifically, compounds were tested against KRAS G12C in 10-point concentration IC50 mode with 3-fold serial dilution at a starting concentration of 10 μM. ARS1620 was used as a control.
Briefly, GST-tagged KRAS G12C (amino acids 2-169) was mixed with anti-GST Tb antibody (1.5× solution) and 10 μL was delivered to reaction wells. Compounds were delivered using an acoustic dispenser (Echo, Labcyte) and pre-incubated with protein for 1 hr at RT. KRAS/anti-GST Tb Ab/compound mixture was incubated for 1 hour at room temperature. A 3× solution of SOS1 (amino acids 564-1049) and GTP-DY-647P1 (GTP*) was prepared in reaction buffer. A 5 μL aliquot of SOS1/GTP* solution was added to reaction wells to initiate the exchange reaction. No-SOS1 reaction or max compound concentration was used as blank. The final concentrations of KRAS G12C, SOS1, and GTP* were 30 nM, 20 nM, and 0.15 μM, respectively. SOS1 mediated exchange of GDP to GTP-DY-647P was measured using HTRF (Ex/Em=(320-75/665-7.5; 615-8.5)) using an Envision Plate Reader (Perkin Elmer). IC50 determination was performed using a Sigmoidal dose response (variable slope) equation.

SMILES	GI50 [1]	GI50 (HeLa cells (ATCC CCL-2))	DC50 (GSPT1)	IC50 (KRAS G12C)
C=C(COc1ccc(CN2C(=O)CCC(N3Cc4cc(CNC(=O)Nc5ccc(C)c(Cl)c5)ccc4C3=O)C2=O)cc1)C(=O)N1CCN(c2nc(OC[C@H]3CCCN3C)nc3c2CCN(c2cccc4cccc(Cl)c24)C3)C[C@@H]1CC#N (stereo in doubt) [Compound I-44]	> 10000 nM	> 10000 nM	> 2500 nM	100 to 5000 nM
C=C(COc1cc(Cl)cc(NC(=O)NCc2ccc3c(c2)CN(C2CCC(=O)NC2=O)C3=O)c1)C(=O)N1CCN(c2nc(OC[C@@H]3CCCN3C)nc3c2CCN(c2cccc4cccc(Cl)c24)C3)C[C@@H]1CC#N (some centres unmarked) [Compound I-35]	1500 to 10000 nM	1500 to 10000 nM	> 2500 nM	< 100 nM
C=C(CN(C(=O)NCc1ccc2c(c1)CN(C1CCC(=O)NC1=O)C2=O)c1ccc(C)c(Cl)c1)C(=O)Nc1cc(Nc2ncc(-c3cn(C)c4ccccc34)cn2)c(OC)cc1N(C)CCN(C)C (centres unmarked) [Compound I-42]	1500 to 10000 nM	1500 to 10000 nM	> 2500 nM	–
C=C(COc1cc(Cl)cc(NC(=O)NCc2ccc3c(c2)CN(C2CCC(=O)NC2=O)C3=O)c1)C(=O)N[C@@H]1CN(c2nc(Nc3cn(C)nc3OC)c3ncn(C)c3n2)C[C@H]1F (some centres unmarked) [Compound I-45]	< 500 nM	1500 to 10000 nM	500 to 2500 nM	–
C=C(COc1cc(Cl)c(OC)cc1NC(=O)NCc1ccc2c(c1)CN(C1CCC(=O)NC1=O)C2=O)C(=O)N1CCN(c2nc(OC[C@@H]3CCCN3C)nc3c2CCN(c2cccc4cccc(Cl)c24)C3)C[C@@H]1CC#N (some centres unmarked) [Compound I-46]	500 to 1500 nM	> 10000 nM	500 to 2500 nM	< 100 nM
C=C(COc1ccc(Cl)cc1NC(=O)NCc1ccc2c(c1)CN(C1CCC(=O)NC1=O)C2=O)C(=O)N[C@@H]1CN(c2nc(Nc3cn(C)nc3OC)c3ncn(C)c3n2)C[C@H]1F (some centres unmarked) [Compound I-47]	< 500 nM	500 to 1500 nM	50 to 500 nM	–
C=C(COc1cc(NC(=O)NCc2ccc3c(c2)CN(C2CCC(=O)NC2=O)C3=O)cc(C(F)(F)F)c1)C(=O)N1CCN(c2nc(OC[C@@H]3CCCN3C)nc3c2CCN(c2cccc4cccc(Cl)c24)C3)C[C@@H]1CC#N (some centres unmarked) [Compound I-48]	1500 to 10000 nM	> 10000 nM	500 to 2500 nM	< 100 nM
C=C(COc1cccc(NC(=O)NCc2ccc3c(c2)CN(C2CCC(=O)NC2=O)C3=O)c1)C(=O)N1CCN(c2nc(OC[C@@H]3CCCN3C)nc3c2CCN(c2cccc4cccc(Cl)c24)C3)C[C@@H]1CC#N (some centres unmarked) [Compound I-49]	> 10000 nM	> 10000 nM	500 to 2500 nM	< 100 nM
C=C(COc1cc(NC(=O)NCc2ccc3c(c2)CN(C2CCC(=O)NC2=O)C3=O)cc(OC)c1)C(=O)N1CCN(c2nc(OC[C@@H]3CCCN3C)nc3c2CCN(c2cccc4cccc(Cl)c24)C3)C[C@@H]1CC#N (some centres unmarked) [Compound I-50]	> 10000 nM	> 10000 nM	> 2500 nM	< 100 nM
C=C(COc1ccc(Cl)cc1NC(=O)NCc1ccc2c(c1)CN(C1CCC(=O)NC1=O)C2=O)C(=O)N1CCN(c2nc(OC[C@@H]3CCCN3C)nc3c2CCN(c2cccc4cccc(Cl)c24)C3)C[C@@H]1CC#N (some centres unmarked) [Compound I-52]	500 to 1500 nM	1500 to 10000 nM	500 to 2500 nM	< 100 nM
C=C(COc1cc(Cl)cc(NC(=O)NCc2ccc3c(c2)CN(C2CCC(=O)NC2=O)C3=O)c1)C(=O)N1C[C@H](COc2nc(Nc3cnn(C)c3)nc3[nH]cc(Cl)c23)[C@@H](OC)C1 (some centres unmarked) [Compound I-54]	500 to 1500 nM	1500 to 10000 nM	< 50 nM	–
C=C(COc1cc(Cl)cc(NC(=O)NCc2ccc3c(c2)CN(C2CCC(=O)NC2=O)C3=O)c1)C(=O)Nc1cccc(Oc2nc(Nc3ccc(N4CCN(C)CC4)cc3)nc3ccsc23)c1 (centres unmarked) [Compound I-55]	500 to 1500 nM	1500 to 10000 nM	50 to 500 nM	–
C=C(COc1cc(Cl)cc(NC(=O)NCc2ccc3c(c2)CN(C2CCC(=O)NC2=O)C3=O)c1)C(=O)Nc1cc(Nc2nccc(-c3cn(C)c4ccccc34)n2)c(OC)cc1N(C)CCN(C)C (centres unmarked) [Compound I-59]	< 500 nM	1500 to 10000 nM	50 to 500 nM	–
C=C(COc1c(Cl)cccc1NC(=O)NCc1ccc2c(c1)CN(C1CCC(=O)NC1=O)C2=O)C(=O)Nc1cc(Nc2nccc(-c3cn(C)c4ccccc34)n2)c(OC)cc1N(C)CCN(C)C (centres unmarked) [Compound I-60]	500 to 1500 nM	1500 to 10000 nM	500 to 2500 nM	–
C=C(COc1cc(Cl)cc(NC(=O)NCc2ccc3c(c2)CN(C2CCC(=O)NC2=O)C3=O)c1)C(=O)Nc1cccc(-c2cccc3cnc(Nc4ccc(N5CCN(CCO)CC5)c(F)c4F)nc23)c1 (centres unmarked) [Compound I-61]	< 500 nM	1500 to 10000 nM	50 to 500 nM	–
C=C(COc1c(Cl)cccc1NC(=O)NCc1ccc2c(c1)CN(C1CCC(=O)NC1=O)C2=O)C(=O)N[C@@H]1CN(c2nc(Nc3cn(C)nc3OC)c3ncn(C)c3n2)C[C@H]1F (some centres unmarked) [Compound I-69]	< 500 nM	500 to 1500 nM	50 to 500 nM	–
C=C(CN(C(=O)NCc1ccc2c(c1)CN(C1CCC(=O)NC1=O)C2=O)c1ccc(C)c(Cl)c1)C(=O)Nc1cccc(Oc2nc(Nc3ccc(N4CCN(C)CC4)cc3)nc3ccsc23)c1 (centres unmarked) [Compound I-70]	1500 to 10000 nM	> 10000 nM	> 2500 nM	–
C=C(CN(C(=O)NCc1ccc2c(c1)CN(C1CCC(=O)NC1=O)C2=O)c1ccc(C)c(Cl)c1)C(=O)N1C[C@@H](COc2nc(Nc3cnn(C)c3)nc3[nH]cc(Cl)c23)[C@H](OC)C1 (some centres unmarked) [Compound I-71]	500 to 1500 nM	> 10000 nM	500 to 2500 nM	–
C=C(COC(=O)NCCc1ccc(Cl)cc1NC(=O)NCc1ccc2c(c1)CN(C1CCC(=O)NC1=O)C2=O)C(=O)N1CCN(c2nc(OC[C@@H]3CCCN3C)nc3c2CCN(c2cccc4cccc(Cl)c24)C3)C[C@@H]1CC#N (some centres unmarked) [Compound I-78]	> 10000 nM	–	500 to 2500 nM	< 100 nM
C=C(COC(=O)NCCCc1ccc(Cl)cc1NC(=O)NCc1ccc2c(c1)CN(C1CCC(=O)NC1=O)C2=O)C(=O)N1CCN(c2nc(OC[C@@H]3CCCN3C)nc3c2CCN(c2cccc4cccc(Cl)c24)C3)C[C@@H]1CC#N (some centres unmarked) [Compound I-79]	> 10000 nM	–	500 to 2500 nM	< 100 nM
C=C(COc1ccccc1NC(=O)NCc1ccc2c(c1)CN(C1CCC(=O)NC1=O)C2=O)C(=O)N1CCN(c2nc(OC[C@H]3CCCN3C)nc3c2CCN(c2cccc4cccc(Cl)c24)C3)C[C@H]1CC#N (some centres unmarked) [Compound I-80]	> 10000 nM	–	> 2500 nM	< 100 nM
C=C(CN1C(=O)CCC(N2Cc3cc(CNC(=O)Nc4ccc(C)c(Cl)c4)ccc3C2=O)C1=O)C(=O)Nc1cc(Nc2ncc(-c3cn(C)c4ccccc34)cn2)c(OC)cc1N(C)CCN(C)C (centres unmarked) [Compound I-87]	< 500 nM	< 500 nM	50 to 500 nM	–
C=C(COC(=O)n1c(CNc2nc(N3CCNCC3)nc3c(Br)cnn23)nc2cc(C)ccc21)C(=O)N1C[C@H](COc2nc(Nc3cnn(C)c3)nc3[nH]cc(Cl)c23)[C@@H](OC)C1 [Compound V-4]	< 500 nM	500 to 1500 nM	–	–
C=C(COc1cc(-c2ccccn2)ccc1CNc1nc(N[C@H](CC)CO)nc2c1ncn2C(C)C)C(=O)N[C@@H]1CN(c2nc(Nc3cn(C)nc3OC)c3ncn(C)c3n2)C[C@H]1F [II-183]	< 500 nM	< 500 nM	–	–
C=C(COC(=O)N1CCN(c2nc(NCc3nc4cc(C)ccc4[nH]3)n3ncc(Br)c3n2)CC1)C(=O)N1C[C@H](COc2nc(Nc3cnn(C)c3)nc3[nH]cc(Cl)c23)[C@@H](OC)C1 [II-185]	< 500 nM	500 to 1500 nM	–	–
C=C(COc1cc(-c2ccccn2)ccc1CNc1nc(N[C@H](CC)CO)nc2c1ncn2C(C)C)C(=O)N1CCN(c2nc(OC[C@@H]3CCCN3C)nc3c2CCN(c2cccc4cccc(Cl)c24)C3)C[C@@H]1CC#N [II-186]	500 to 1500 nM	1500 to 10000 nM	–	< 100 nM
C=C(CN1CCN(c2nc(NCc3nc4cc(C)ccc4[nH]3)n3ncc(Br)c3n2)CC1)C(=O)Nc1cc(Nc2nccc(-c3cn(C)c4ccccc34)n2)c(OC)cc1N(C)CCN(C)C [II-188]	< 500 nM	< 500 nM	–	–
C=C(CN1CCN(c2nc(NCc3nc4cc(C)ccc4[nH]3)n3ncc(Br)c3n2)CC1)C(=O)N1CCN(c2nc(OC[C@@H]3CCCN3C)nc3c2CCN(c2cccc4cccc(Cl)c24)C3)C[C@@H]1CC#N [II-190]	< 500 nM	< 500 nM	–	< 100 nM
C=C(CN1CCN(c2nc(NCc3nc4cc(C)ccc4[nH]3)n3ncc(Br)c3n2)CC1)C(=O)Nc1cccc(-c2cccc3cnc(Nc4ccc(N5CCN(CCO)CC5)c(F)c4F)nc23)c1 [II-191]	< 500 nM	< 500 nM	–	–
